The record followed here is EPA's ToxValDB 9.5 (doi:10.2903/j.efsa.2010.1707).

≈ marks a conversion by molar mass, not a printed value.

One data set concerns Typhlodromus pyri. Put plainly: LR50; higher = less toxic. Conditions: not reported; mortality.
For a further data set, the system named is Aphidius rhopalosiphi. The experiment in a line: LR50; higher = less toxic. Conditions: not reported; mortality.
Another data set deals with Pimephales promelas. Particulars: chronic/long-term; duration: 34 days; other.
The subject of the next data set is Canidae. Particulars: chronic; duration: 1 years; oral; Dog Other; clinical chemistry.
The next data set has as its system Oryctolagus sp. Particulars: developmental; development.
A further data set concerns Apis mellifera. Conditions: acute; duration: 48 hours; oral; unspecified; mortality.
For another data set, the system named is Oncorhynchus mykiss. Particulars: acute; duration: 96 hours; mortality.
In the next data set the test system is Folsomia candida. Conditions: chronic/long-term; duration: 28 days.
The next data set deals with Rattus norvegicus. Conditions: oral.
In the next data set the test system is Cyprinodon variegatus. Particulars: acute; duration: 96 hours; mortality.
A further data set has as its system Daphnia magna. Conditions: chronic/long-term; duration: 21 days; growth.
For another data set, the system named is Bibionidae. Conditions: chronic/long-term; duration: 28 days.

Take `CCCN(CCC)c1c([N+](=O)[O-])cc(S(N)(=O)=O)cc1[N+](=O)[O-]` [Oryzalin]: the LR50 is less than 3850 g/ha in the data set on Typhlodromus pyri and greater than 3850 g/ha in the data set with Aphidius rhopalosiphi. Moreover, the NOEC with Pimephales promelas stood at 0.22 mg/L; in the data set with Folsomia candida, 34.3 mg/kg; with Daphnia magna it was 0.36 mg/L; in the data set on Tagia sp. (chronic/long-term, duration: 56 days) it was 34.3 mg/kg; in the data set with Bibionidae it was 1 mg/L. For the same compound, the LD50 is greater than 691 mg/kg-day in the data set on Colinus virginianus (acute, oral, diet, mortality); 32 µg/piece in the data set on Apis mellifera; greater than 1350 mg/kg-day in the data set with Anas platyrhynchos (short-term, oral, feed, mortality); greater than 5000 mg/kg-day in the data set on Rattus norvegicus (acute, mortality). Also, the NOEL was 28 mg/kg-day in the data set with Colinus virginianus (reproduction developmental) and 41 mg/kg-day in the data set on Anas platyrhynchos (reproductive). Moreover, the NOAEL – broadly, the highest tested level that showed no adverse finding – with Canidae stood at 5 mg/kg-day; with Oryctolagus sp. it was 25 mg/kg-day; in the data set with Rattus norvegicus (subchronic, duration: 90 days, hematological) it was 5 mg/kg-day. Further, the LC50 with Oncorhynchus mykiss is 2.86 µg/mL (≈ 8.26 µM); in the data set on Cyprinodon variegatus it was greater than 3.04 µg/mL; in the data set with Tagia sp. (acute, duration: 14 days, mortality), greater than 103 mg/kg.
